Source: the NIST ThermoML archive (doi:10.1016/j.jct.2005.06.011)
Numbers after ± are expanded uncertainties.

Assays:
[1] = refractive index (Na D-line) (dimensionless); xn = mol fraction of the nth substance listed; settings: 101 kPa, Liquid
[2] = xn = mol fraction of the nth substance listed; settings: 101 kPa, Liquid; for speed of sound: Linear variable-path acoustic interferometer

CC(C)CO [2-methyl-1-propanol] + CC1CCCCC1
x2 = 0
Settings | mass density, 298.15 K [kg/m3] | mass density, 303.15 K [kg/m3] | mass density, 308.15 K [kg/m3] | refractive index, 298.15 K | refractive index, 303.15 K | refractive index, 308.15 K | speed of sound, 298.15 K [m/s] | viscosity, 298.15 K [mPa·s] | viscosity, 303.15 K [mPa·s] | viscosity, 308.15 K [mPa·s]
[1] | – | – | – | 1.3932 ± 0.0013 | 1.3917 ± 0.0013 | 1.3896 ± 0.0013 | – | – | – | –
[2] | 809.31 ± 8.1 | 805.23 ± 8.1 | 801.11 ± 8 | – | – | – | 1170 ± 4 | 3.097 ± 0.038 | 2.635 ± 0.032 | 2.249 ± 0.028

CC(C)CCO [3-methylbutan-1-ol] + CC1CCCCC1
Settings | mass density, 298.15 K [kg/m3] | mass density, 303.15 K [kg/m3] | mass density, 308.15 K [kg/m3] | refractive index, 298.15 K | refractive index, 303.15 K | refractive index, 308.15 K | speed of sound, 298.15 K [m/s] | viscosity, 298.15 K [mPa·s] | viscosity, 303.15 K [mPa·s] | viscosity, 308.15 K [mPa·s]
[1], x2 = 0 | – | – | – | 1.4056 ± 0.0013 | 1.4034 ± 0.0013 | 1.4013 ± 0.0013 | – | – | – | –
[1], x2 = 0.1002 | – | – | – | 1.4073 ± 0.0013 | 1.405 ± 0.0013 | 1.4028 ± 0.0013 | – | – | – | –
[1], x2 = 0.2011 | – | – | – | 1.4089 ± 0.0013 | 1.4066 ± 0.0013 | 1.4043 ± 0.0013 | – | – | – | –
[1], x2 = 0.3001 | – | – | – | 1.4105 ± 0.0013 | 1.4081 ± 0.0013 | 1.4058 ± 0.0013 | – | – | – | –
[1], x2 = 0.4016 | – | – | – | 1.4121 ± 0.0013 | 1.4097 ± 0.0013 | 1.4073 ± 0.0013 | – | – | – | –
[1], x2 = 0.5019 | – | – | – | 1.4137 ± 0.0013 | 1.4112 ± 0.0013 | 1.4088 ± 0.0013 | – | – | – | –
[1], x2 = 0.6012 | – | – | – | 1.4153 ± 0.0013 | 1.4128 ± 0.0013 | 1.4103 ± 0.0013 | – | – | – | –
[1], x2 = 0.702 | – | – | – | 1.4169 ± 0.0013 | 1.4144 ± 0.0013 | 1.4118 ± 0.0013 | – | – | – | –
[1], x2 = 0.8011 | – | – | – | 1.4185 ± 0.0013 | 1.4159 ± 0.0013 | 1.4133 ± 0.0013 | – | – | – | –
[1], x2 = 0.9009 | – | – | – | 1.4201 ± 0.0013 | 1.4174 ± 0.0013 | 1.4148 ± 0.0013 | – | – | – | –
[2], x2 = 0 | 820.17 ± 8.2 | 816.28 ± 8.2 | 812.34 ± 8.1 | – | – | – | 1259 ± 4 | 2.779 ± 0.034 | 2.258 ± 0.028 | 1.844 ± 0.023
[2], x2 = 0.1002 | 814.65 ± 8.2 | 810.69 ± 8.1 | 806.74 ± 8.1 | – | – | – | 1255 ± 4 | 2.569 ± 0.032 | 2.144 ± 0.027 | 1.719 ± 0.022
[2], x2 = 0.2011 | 809.13 ± 8.1 | 805.14 ± 8.1 | 801.13 ± 8 | – | – | – | 1250 ± 4 | 2.359 ± 0.029 | 1.976 ± 0.025 | 1.593 ± 0.02
[2], x2 = 0.3001 | 803.62 ± 8.1 | 799.57 ± 8 | 795.53 ± 8 | – | – | – | 1246 ± 4 | 2.151 ± 0.027 | 1.81 ± 0.023 | 1.47 ± 0.019
[2], x2 = 0.4016 | 798.1 ± 8 | 794.02 ± 8 | 789.92 ± 7.9 | – | – | – | 1242 ± 4 | 1.938 ± 0.024 | 1.641 ± 0.021 | 1.343 ± 0.017
[2], x2 = 0.5019 | 792.58 ± 8 | 788.45 ± 7.9 | 784.32 ± 7.9 | – | – | – | 1238 ± 4 | 1.728 ± 0.022 | 1.472 ± 0.019 | 1.217 ± 0.016
[2], x2 = 0.6012 | 787.06 ± 7.9 | 782.89 ± 7.8 | 778.72 ± 7.8 | – | – | – | 1234 ± 4 | 1.519 ± 0.019 | 1.306 ± 0.017 | 1.093 ± 0.014
[2], x2 = 0.702 | 781.54 ± 7.8 | 777.33 ± 7.8 | 773.11 ± 7.8 | – | – | – | 1230 ± 4 | 1.307 ± 0.017 | 1.136 ± 0.015 | 0.9662 ± 0.013
[2], x2 = 0.8011 | 776.03 ± 7.8 | 771.78 ± 7.7 | 767.51 ± 7.7 | – | – | – | 1226 ± 4 | 1.097 ± 0.015 | 0.9594 ± 0.013 | 0.8412 ± 0.011
[2], x2 = 0.9009 | 770.51 ± 7.7 | 766.22 ± 7.7 | 761.9 ± 7.6 | – | – | – | 1221 ± 4 | 0.8861 ± 0.012 | 0.8008 ± 0.011 | 0.7156 ± 0.01

CCCCO [butan-1-ol] + CC1CCCCC1
x2 = 0
Settings | mass density, 298.15 K [kg/m3] | mass density, 303.15 K [kg/m3] | mass density, 308.15 K [kg/m3] | refractive index, 298.15 K | refractive index, 303.15 K | refractive index, 308.15 K | speed of sound, 298.15 K [m/s] | viscosity, 298.15 K [mPa·s] | viscosity, 303.15 K [mPa·s] | viscosity, 308.15 K [mPa·s]
[1] | – | – | – | 1.3983 ± 0.0025 | 1.3959 ± 0.0025 | 1.394 ± 0.0025 | – | – | – | –
[2] | 808.49 ± 8.1 | 804.6 ± 8.1 | 800.67 ± 8 | – | – | – | 1268 ± 4 | 2.587 ± 0.032 | 2.254 ± 0.028 | 1.988 ± 0.025
